What all share (format): cell-based
Test [1] addresses T1, von Hippel-Lindau disease tumor suppressor/Son of sevenless homolog 1 (Homo sapiens, UniProt Q07889+P40337). Put plainly: Protac activity at VHL/SOS1 in human PANC-1 cells assessed as SOS1 degradation at 1 uM by Western blotting analysis relative to control. For orientation: In western blotting, separated proteins are transferred to a membrane and probed.
Test [2] concerns the target T1, von Hippel-Lindau disease tumor suppressor/Son of sevenless homolog 1. Put plainly: Protac activity at VHL/SOS1 in human K562 cells assessed as SOS1 degradation at 1 uM by Western blotting analysis relative to control.
For test [3] the target is unchanged. The test is described as follows: Protac activity at VHL/SOS1 in human PANC-1 cells assessed as SOS1 degradation at 10 uM by Western blotting analysis relative to control.
The target is the same in test [4]. The test is described as follows: Protac activity at VHL/SOS1 in human K562 cells assessed as SOS1 degradation at 10 uM by Western blotting analysis relative to control.

Our source for the Activity values is ChEMBL document CHEMBL5528047, “A Potent SOS1 PROTAC Degrader with Synergistic Efficacy in Combination with KRASG12C Inhibitor” (J Med Chem, 2024).

T1 sequence (P40337 whole entry, looked up): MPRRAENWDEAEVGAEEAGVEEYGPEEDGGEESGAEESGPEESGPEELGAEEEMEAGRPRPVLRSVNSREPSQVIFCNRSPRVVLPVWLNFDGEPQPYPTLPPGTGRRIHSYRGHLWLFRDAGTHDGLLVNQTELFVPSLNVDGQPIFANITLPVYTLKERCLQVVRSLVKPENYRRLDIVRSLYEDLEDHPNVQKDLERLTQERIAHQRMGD
T1 sequence (Q07889 whole entry, looked up): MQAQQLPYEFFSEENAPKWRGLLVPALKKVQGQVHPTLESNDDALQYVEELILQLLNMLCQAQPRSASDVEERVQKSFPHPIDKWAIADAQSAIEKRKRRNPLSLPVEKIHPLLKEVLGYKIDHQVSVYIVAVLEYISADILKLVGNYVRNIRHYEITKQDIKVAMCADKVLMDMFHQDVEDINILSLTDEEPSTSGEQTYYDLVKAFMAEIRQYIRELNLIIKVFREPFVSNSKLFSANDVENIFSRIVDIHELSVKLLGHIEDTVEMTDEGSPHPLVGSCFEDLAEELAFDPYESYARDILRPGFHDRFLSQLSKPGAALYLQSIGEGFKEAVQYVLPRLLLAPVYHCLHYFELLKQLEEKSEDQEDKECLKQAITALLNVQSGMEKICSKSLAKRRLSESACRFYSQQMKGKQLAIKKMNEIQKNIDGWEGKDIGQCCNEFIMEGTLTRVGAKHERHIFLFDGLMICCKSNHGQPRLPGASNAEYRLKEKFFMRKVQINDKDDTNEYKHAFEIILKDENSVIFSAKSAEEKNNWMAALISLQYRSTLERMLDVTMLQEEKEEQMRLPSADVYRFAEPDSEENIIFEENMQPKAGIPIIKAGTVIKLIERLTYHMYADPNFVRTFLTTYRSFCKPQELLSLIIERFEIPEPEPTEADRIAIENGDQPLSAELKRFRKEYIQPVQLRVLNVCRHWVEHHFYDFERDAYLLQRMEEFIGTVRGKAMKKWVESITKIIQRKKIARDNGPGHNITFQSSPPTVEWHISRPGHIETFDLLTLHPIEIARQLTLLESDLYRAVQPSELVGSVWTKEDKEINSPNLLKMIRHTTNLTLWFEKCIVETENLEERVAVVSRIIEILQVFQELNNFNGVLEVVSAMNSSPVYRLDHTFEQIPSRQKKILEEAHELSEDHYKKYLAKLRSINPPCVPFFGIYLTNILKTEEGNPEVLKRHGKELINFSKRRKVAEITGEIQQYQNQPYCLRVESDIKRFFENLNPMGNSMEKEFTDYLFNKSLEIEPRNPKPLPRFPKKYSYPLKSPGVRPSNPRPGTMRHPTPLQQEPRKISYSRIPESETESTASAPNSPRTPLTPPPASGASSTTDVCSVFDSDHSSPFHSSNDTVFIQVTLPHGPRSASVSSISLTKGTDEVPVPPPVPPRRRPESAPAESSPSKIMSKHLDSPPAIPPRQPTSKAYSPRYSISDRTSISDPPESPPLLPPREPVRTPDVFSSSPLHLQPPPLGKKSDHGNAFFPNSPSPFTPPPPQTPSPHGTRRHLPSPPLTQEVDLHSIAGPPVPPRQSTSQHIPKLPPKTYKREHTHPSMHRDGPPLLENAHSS

For the molecule `COc1cc2nc(C)nc(N[C@H](C)c3cc(-c4ccccc4CNCCCN4CCC(C(=O)N[C@H](C(=O)N5C[C@H](O)C[C@H]5C(=O)NCc5ccc(-c6scnc6C)cc5)C(C)(C)C)CC4)cs3)c2cc1OC`, the Activity in test [1] stood at 29.1%; in test [2] it was 0%; in test [3], 49.8%; in test [4], 0%.
For the molecule `CNCc1ccccc1-c1csc([C@@H](C)Nc2nc(C)nc3cc(OC)c(OCCCCCC(=O)N[C@H](C(=O)N4C[C@H](O)C[C@H]4C(=O)NCc4ccc(-c5scnc5C)cc4)C(C)(C)C)cc23)c1`, the Activity in test [1] was 0%; in test [2], 22.5%; in test [3], 0%; in test [4], 0%.
In the case of `CNCc1ccccc1-c1csc([C@@H](C)Nc2nc(C)nc3cc(OC)c(OCCCCC(=O)N[C@H](C(=O)N4C[C@H](O)C[C@H]4C(=O)NCc4ccc(-c5scnc5C)cc4)C(C)(C)C)cc23)c1`, the Activity came out at 8.8% in test [1], 27.5% in test [2], 0% in test [3] and 32.9% in test [4].
Take `COc1cc2nc(C)nc(N[C@H](C)c3cc(-c4ccccc4CNCCCCCCCCCC(=O)N[C@H](C(=O)N4C[C@H](O)C[C@H]4C(=O)NCc4ccc(-c5scnc5C)cc4)C(C)(C)C)cs3)c2cc1OC`: the Activity in test [1] came to 0%; in test [2], 0%; in test [3], 5.8%; in test [4], 25.3%.
In the case of `CNCc1ccccc1-c1csc([C@@H](C)Nc2nc(C)nc3cc(OC)c(OCCCCCCC(=O)N[C@H](C(=O)N4C[C@H](O)C[C@H]4C(=O)NCc4ccc(-c5scnc5C)cc4)C(C)(C)C)cc23)c1`, the Activity in test [1] is 0%; in test [2] it was 28.1%; in test [3], 0%; in test [4], 21.8%.
With `COc1cc2nc(C)nc(N[C@H](C)c3cc(-c4ccccc4CNCCCCCC(=O)N[C@H](C(=O)N4C[C@H](O)C[C@H]4C(=O)NCc4ccc(-c5scnc5C)cc4)C(C)(C)C)cs3)c2cc1OC`, the Activity in test [1] was 13.2%; in test [2], 0%; in test [3], 11%; in test [4], 0%.
Turning to `COc1cc2nc(C)nc(N[C@H](C)c3cc(-c4ccccc4CNCC4CCN(C(=O)CC(=O)N[C@H](C(=O)N5C[C@H](O)C[C@H]5C(=O)NCc5ccc(-c6scnc6C)cc5)C(C)(C)C)CC4)cs3)c2cc1OC`, the Activity in test [1] is 26%; in test [2] it was 0%; in test [3], 0%; in test [4] it was 0%.
As for `COc1cc2nc(C)nc(N[C@H](C)c3cc(N)cc(C(F)(F)F)c3)c2cc1OCCCCCCC(=O)N[C@H](C(=O)N1C[C@H](O)C[C@H]1C(=O)NCc1ccc(-c2scnc2C)cc1)C(C)(C)C`, the Activity in test [1] turned out to be 27%; in test [2], 0%; in test [3], 3.4%; in test [4] it was 0%.
With `COc1cc2nc(C)nc(N[C@H](C)c3cc(-c4ccccc4CNCC4CCN(CC5CCN(C(=O)CC(=O)N[C@H](C(=O)N6C[C@H](O)C[C@H]6C(=O)NCc6ccc(-c7scnc7C)cc6)C(C)(C)C)CC5)CC4)cs3)c2cc1OC`, the Activity came to 23% in test [1], 0% in test [2], 19.6% in test [3] and 0% in test [4].
For `CNCc1ccccc1-c1csc([C@@H](C)Nc2nc(C)nc3cc(OC)c(C4=CCN(C(=O)CCC(=O)N[C@H](C(=O)N5C[C@H](O)C[C@H]5C(=O)NCc5ccc(-c6scnc6C)cc5)C(C)(C)C)CC4)cc23)c1`, the Activity in test [1] was 5.6%; in test [2] it was 18.9%; in test [3] it was 0%; in test [4], 6.7%.
As to `CNCc1ccccc1-c1csc([C@@H](C)Nc2nc(C)nc3cc(OC)c(OCCCCCCCCC(=O)N[C@H](C(=O)N4C[C@H](O)C[C@H]4C(=O)NCc4ccc(-c5scnc5C)cc4)C(C)(C)C)cc23)c1`, the values for the Activity in test [1], in test [2] and in test [3] were 0%, 34.7% and 0%, respectively.
With `COc1cc2nc(C)nc(N[C@H](C)c3cc(N)cc(C(F)(F)F)c3)c2cc1OCCCCCCCC(=O)N[C@H](C(=O)N1C[C@H](O)C[C@H]1C(=O)NCc1ccc(-c2scnc2C)cc1)C(C)(C)C`, the Activity in test [1] amounted to 28.8%; in test [2], 0%; in test [3], 0%; in test [4] it was 0%.
As to `COc1cc2nc(C)nc(N[C@H](C)c3cc(N)cc(C(F)(F)F)c3)c2cc1OCCCCCC(=O)N[C@H](C(=O)N1C[C@H](O)C[C@H]1C(=O)NCc1ccc(-c2scnc2C)cc1)C(C)(C)C`, the Activity in test [1], in test [2], in test [3] and in test [4] was 0% throughout.
For `COc1cc2nc(C)nc(N[C@H](C)c3cc(-c4ccccc4CNCCC4CCN(C(=O)CC(=O)N[C@H](C(=O)N5C[C@H](O)C[C@H]5C(=O)NCc5ccc(-c6scnc6C)cc5)C(C)(C)C)CC4)cs3)c2cc1OC`, the Activity in test [1], in test [2], in test [3] and in test [4] was 0% throughout.
Consider `CNCc1ccccc1-c1csc([C@@H](C)Nc2nc(C)nc3cc(OC)c(C4=CCN(C(=O)CCCCC(=O)N[C@H](C(=O)N5C[C@H](O)C[C@H]5C(=O)NCc5ccc(-c6scnc6C)cc5)C(C)(C)C)CC4)cc23)c1`, for which the Activity in test [1] amounted to 0%; in test [2], 16.6%; in test [3], 30.2%; in test [4], 28.3%.
For `COc1cc2nc(C)nc(N[C@H](C)c3cc(N)cc(C(F)(F)F)c3)c2cc1OCCCCCCCCCC(=O)N[C@H](C(=O)N1C[C@H](O)C[C@H]1C(=O)NCc1ccc(-c2scnc2C)cc1)C(C)(C)C` the same measures were 48.3%, 0%, 0% and 0%.
For `COc1cc2nc(C)nc(N[C@H](C)c3cc(-c4ccccc4CNCCCCCCCC(=O)N[C@H](C(=O)N4C[C@H](O)C[C@H]4C(=O)NCc4ccc(-c5scnc5C)cc4)C(C)(C)C)cs3)c2cc1OC` the same measures were 0%, 27.4%, 12.7% and 58.9%.
On to `COc1cc2nc(C)nc(N[C@H](C)c3cc(N)cc(C(F)(F)F)c3)c2cc1OCCCC(=O)N[C@H](C(=O)N1C[C@H](O)C[C@H]1C(=O)NCc1ccc(-c2scnc2C)cc1)C(C)(C)C`, for which the Activity in test [1], in test [2], in test [3] and in test [4] was 0% throughout.
Regarding `CNCc1ccccc1-c1csc([C@@H](C)Nc2nc(C)nc3cc(OC)c(C4=CCN(C(=O)CCCC(=O)N[C@H](C(=O)N5C[C@H](O)C[C@H]5C(=O)NCc5ccc(-c6scnc6C)cc5)C(C)(C)C)CC4)cc23)c1`, the Activity was 8.4% in test [1], 2.3% in test [2], 0% in test [3] and 18.7% in test [4].
`CNCc1ccccc1-c1csc([C@@H](C)Nc2nc(C)nc3cc(OC)c(OCCCCCCCC(=O)N[C@H](C(=O)N4C[C@H](O)C[C@H]4C(=O)NCc4ccc(-c5scnc5C)cc4)C(C)(C)C)cc23)c1`: the Activity in test [1] was found to be 0%; in test [2] it was 27%; in test [3], 14.3%.
